Measurements reported in patent US10975068B2, “6-aminopyridin-3-yl thiazoles as modulators of RORγT” (Janssen Pharmaceutica NV, priority 2016, dated 2021).
Like-named read-outs stand apart in the source and are kept apart here. Marks after values point to notes of the source that are not given here.

Assays:
[1] = target: full-length human RORγt (Homo sapiens (Human), UniProt P51449); experiment: RORγt (full-length human) reporter assay, Conditions B or C; type: cell-based; details: for inhibition at 3 µM / inhibition at 1 µM: read-out: RORγt (FL) Reporter Assay B or C, % inhibition; for RORγt (FL) Reporter Assay B or C, % inhibition (value marked *): marked *: footnote not given; for inhibition at 1 µM: at 1 μM compound concentration
Chain of full-length human RORγt (P51449 other isoform, or with tags, fused parts or gaps): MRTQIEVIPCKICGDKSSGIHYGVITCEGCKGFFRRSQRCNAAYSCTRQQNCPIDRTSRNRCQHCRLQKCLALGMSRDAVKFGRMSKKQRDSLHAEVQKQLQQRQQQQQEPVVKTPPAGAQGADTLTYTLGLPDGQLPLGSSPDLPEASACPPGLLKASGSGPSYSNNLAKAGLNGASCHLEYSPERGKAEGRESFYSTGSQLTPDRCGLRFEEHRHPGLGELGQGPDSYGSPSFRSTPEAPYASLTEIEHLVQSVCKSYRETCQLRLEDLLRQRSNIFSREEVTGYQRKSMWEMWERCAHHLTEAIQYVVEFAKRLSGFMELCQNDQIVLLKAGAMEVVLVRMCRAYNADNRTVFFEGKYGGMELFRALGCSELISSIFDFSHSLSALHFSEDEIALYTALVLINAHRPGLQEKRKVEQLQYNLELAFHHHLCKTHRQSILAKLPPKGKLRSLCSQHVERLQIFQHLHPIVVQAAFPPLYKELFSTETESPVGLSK
Method in brief: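 HEK293T cells transiently co-transfected with GAL4-DBD–full-length human RORγt (nt 142-1635, NM_001001523.1) plus GAL4-firefly and CMV-Renilla luciferase reporters; compounds added 4-6 h post-transfection for 16-20 h in 1.3% FBS, 0.1% DMSO. Firefly signal normalized to DMSO and saturating reference compound, then to Renilla; IC50 from concentration plots.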

[2] = target: human RORγt ligand binding domain (RORγt LBD) (Homo sapiens (Human), UniProt P51449); experiment: RORγt ThermoFluor® assay (thermal shift binding); details: read-out: ThermoFluor® Assay, Kd
Chain of human RORγt ligand binding domain (RORγt LBD) (P51449 other isoform, or with tags, fused parts or gaps): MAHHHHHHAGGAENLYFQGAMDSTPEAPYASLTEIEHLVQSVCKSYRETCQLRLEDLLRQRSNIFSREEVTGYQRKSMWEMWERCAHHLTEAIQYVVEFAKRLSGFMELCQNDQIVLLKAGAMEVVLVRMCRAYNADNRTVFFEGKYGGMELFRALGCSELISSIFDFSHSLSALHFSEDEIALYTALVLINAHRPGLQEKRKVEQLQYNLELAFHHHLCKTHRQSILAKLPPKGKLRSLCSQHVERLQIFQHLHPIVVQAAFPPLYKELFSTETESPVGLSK
Method in brief: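 His-tagged human RORγt LBD (0.065 mg/mL) with 60 μM 1,8-ANS in 100 mM Hepes pH 7.0, 10 mM NaCl, 2.5 mM GSH, 0.002% Tween-20 was heated at 1 °C/min.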

[3] = read-out: RORγt (FL) Reporter Assay B or C, IC50
[4] = RORγt (FL) Reporter Assay B or C, IC50 (μM), Conditions B or C
[5] = Conditions B or C, read-out: RORγt (FL) Reporter Assay B or C, IC50
[6] = RORγt (FL) Reporter Assay B or C, IC50

Structure (SMILES) | inhibition at 3 µM ([1]; at 3 μM compound concentration) [%] | IC50 [1, 3] [µM] | Kd [2] [nM] | RORγt (FL) Reporter Assay B or C, % inhibition (value marked *) ([1]; Conditions B or C) | IC50 [1, 5] [µM] | also measured
C[C@H]1CCCN1C(=O)c1nc(C(N)=O)sc1-c1cnc(NC(C)(C)C)cc1C(F)(F)F [Example 308, (S)-5-(6-(tert-Butylamino)-4-(trifluoromethyl)pyridin-3-yl)-4-(2-methylpyrrolidine-1-carbonyl)thiazole-2-carboxamide] | 107 | 0.26 | 96 |  |  | 
CCC(C)(C)Nc1cc(C(F)(F)F)c(-c2sc(C(=O)NCC(C)(C)O)nc2C(=O)N2C3CCC2CC3)cn1 [Example 98, 4-((1s,4s)-7-Azabicyclo[2.2.1]heptane-7-carbonyl)-N-(2-hydroxy-2-methylpropyl)-5-(6-(tert-pentylamino)-4-(trifluoromethyl)pyridin-3-yl)thiazole-2-carboxamide] |  |  | 0.41 | 110* % |  | IC50 [1, 4]: 0.0096 µM
C[C@H]1CCCN1C(=O)c1nc(C(=O)N[C@H](C)C(C)(C)O)sc1-c1cnc(N[C@@H](C2CC2)C(F)(F)F)cc1C(F)F [Example 311, 5-(6-(((S)-1-Cyclopropyl-2,2,2-trifluoroethyl)amino)-4-(difluoromethyl)pyridin-3-yl)-N—((R)-3-hydroxy-3-methylbutan-2-yl)-4-((S)-2-methylpyrrolidine-1-carbonyl)thiazole-2-carboxamide] | 107 | 0.04 | 3.7 |  |  | 
C[C@H](NC(=O)c1nc(C(=O)N2CC(F)(F)C[C@@H]2C)c(-c2cnc(N[C@@H](C3CC3)C(F)(F)F)cc2C(F)F)s1)C(C)(C)O [Example 313, 5-(6-(((S)-1-Cyclopropyl-2,2,2-trifluoroethyl)amino)-4-(difluoromethyl)pyridin-3-yl)-4-((S)-4,4-difluoro-2-methylpyrrolidine-1-carbonyl)-N—((S)-3-hydroxy-3-methylbutan-2-yl)thiazole-2-carboxamide] | 106 | 0.036 | 0.74 |  |  | 
CC(C)(O)CNC(=O)c1nc(C(=O)N2C3CCC2CC3)c(-c2cnc(NC3(C(F)(F)F)CCC3)cc2C(F)(F)F)s1 [Example 99, 4-((1s,4s)-7-Azabicyclo[2.2.1]heptane-7-carbonyl)-N-(2-hydroxy-2-methylpropyl)-5-(4-(trifluoromethyl)-6-((1-(trifluoromethyl)cyclobutyl)amino)pyridin-3-yl)thiazole-2-carboxamide] |  |  | 0.58 | 108* % | 0.011 | 
C[C@H](Nc1cc(C(F)F)c(-c2sc(C(=O)N[C@H]3CCC[C@@H]3O)nc2C(=O)N2CC(F)(F)C[C@@H]2C)cn1)C(F)(F)F [Example 418, 4-[(2S)-4,4-Difluoro-2-methyl-pyrrolidine-1-carbonyl]-5-[4-(difluoromethyl)-6-[[(1S)-2,2,2-trifluoro-1-methyl-ethyl]amino]-3-pyridyl]-N-[(1S,2S)-2-hydroxycyclopentyl]thiazole-2-carboxamide] | 105 | 0.032 | 0.77 |  |  | 
C[C@H]1CCCN1C(=O)c1nc(C(=O)NCC2(O)CCC2)sc1-c1cnc(NC2CCCC2)cc1C(F)F [Example 71, (S)-5-(6-(Cyclopentylamino)-4-(difluoromethyl)pyridin-3-yl)-N-((1-hydroxycyclobutyl)methyl)-4-(2-methylpyrrolidine-1-carbonyl)thiazole-2-carboxamide] |  |  | 3.7 | 111* % | 0.013 | 
C[C@H]1CCCN1C(=O)c1nc(C(=O)NCC(C)(C)O)sc1-c1cnc(NC2CCCC2(F)F)cc1C(F)(F)F (stereo partly drawn) [Example 127, 5-(6-((2,2-Difluorocyclopentyl)amino)-4-(trifluoromethyl)pyridin-3-yl)-N-(2-hydroxy-2-methylpropyl)-4-((S)-2-methylpyrrolidine-1-carbonyl)thiazole-2-carboxamide] |  |  | 6.2 | 114* % | 0.11 | 
CC[C@H](Nc1cc(C(F)F)c(-c2sc(C(=O)NCC(C)(C)O)nc2C(=O)N2CCC[C@@H]2C)cn1)C1CC1 (relative stereo) [Example 166] |  |  | 4.7 | 94* % | 0.027 | 
C[C@H]1CCCN1C(=O)c1nc(C(=O)NCC(C)(C)O)sc1-c1cnc(NCC2CCC2)cc1C(F)F [Example 301, (S)-5-(6-((Cyclobutylmethyl)amino)-4-(difluoromethyl)pyridine-3-yl)-N-(2-hydroxy-2-methylpropyl)-4-(2-methylpyrrolidine-1-carbonyl)thiazole-2-carboxamide] | 95 | 0.084 | 30 |  |  | 
CC(C)(C)Nc1cc(C(F)F)c(-c2sc(C(=O)N[C@H]3CC[C@H](O)C3)nc2C(=O)N2C3CCC2CC3)cn1 [Example 413, 4-((1s,4s)-7-Azabicyclo[2.2.1]heptane-7-carbonyl)-5-[6-(tert-butylamino)-4-(difluoromethyl)-3-pyridyl]-N-[(1S,3S)-3-hydroxycyclopentyl]thiazole-2-carboxamide] |  |  | 0.82 |  |  | IC50 [1, 6]: 0.02 µM; inhibition at 1 µM [1]: 133%
C[C@H]1CCCN1C(=O)c1nc(C(=O)NCC(C)(C)O)sc1-c1cnc(N[C@@H]2CCCC2(F)F)cc1C(F)(F)F (single isomer, unassigned) [Example 280, 5-(6-(((R*)-2,2-Difluorocyclopentyl)amino)-4-(trifluoromethyl)pyridin-3-yl)-N-(2-hydroxy-2-methylpropyl)-4-((S)-2-methylpyrrolidine-1-carbonyl)thiazole-2-carboxamide] | 110 | 0.016 | 4.9 |  |  | 
O=C(N[C@@H]1CC[C@@H](O)C1)c1nc(C(=O)N2C3CCC2CC3)c(-c2cnc(N[C@@H](C3CC3)C(F)(F)F)cc2C(F)F)s1 [Example 437, 4-((1s,4s)-7-Azabicyclo[2.2.1]heptane-7-carbonyl)-5-[6-[[(1S)-1-cyclopropyl-2,2,2-trifluoro-ethyl]amino]-4-(difluoromethyl)-3-pyridyl]-N-[(1R,3R)-3-hydroxycyclopentyl]thiazole-2-carboxamide] | 90 |  | 0.44 |  |  | IC50 [1, 6]: 0.016 µM
C[C@H]1CCCN1C(=O)c1nc(C(=O)N[C@H](C)C(C)(C)O)sc1-c1cnc(N[C@H](C2CC2)C(F)(F)F)cc1C(F)F [Example 332, 5-(6-(((R)-1-Cyclopropyl-2,2,2-trifluoroethyl)amino)-4-(difluoromethyl)pyridin-3-yl)-N—((R)-3-hydroxy-3-methylbutan-2-yl)-4-((S)-2-methylpyrrolidine-1-carbonyl)thiazole-2-carboxamide] | 107 | 0.089 | 1.5 |  |  | 
C[C@H]1CCCN1C(=O)c1nc(C(=O)N2CC[C@](C)(O)C2)sc1-c1cnc(NC(C)(C)C)cc1C(F)(F)F (relative stereo) [Example 365, (5-(6-(tert-Butylamino)-4-(trifluoromethyl)pyridin-3-yl)-2-((S*)-3-hydroxy-3-methylpyrrolidine-1-carbonyl)thiazol-4-yl)((S)-2-methylpyrrolidin-1-yl)methanone] |  | 0.052 | 8.1 |  |  | inhibition at 1 µM [1]: 92%
CC[C@H](Nc1cc(C(F)F)c(-c2sc(C(=O)NC3CCC3O)nc2C(=O)N2CCC[C@@H]2C)cn1)C(F)(F)F (stereo partly drawn) [Example 379, 5-(4-(Difluoromethyl)-6-(((S)-1,1,1-trifluorobutan-2-yl)amino)pyridin-3-yl)-N-(cis-2-hydroxycyclobutyl)-4-((S)-2-methylpyrrolidine-1-carbonyl)thiazole-2-carboxamide] |  | 0.055 | 2.4 |  |  | RORγt (FL) Reporter Assay B or C, % inhibition ([1]; at 3 μM compound concentration): 101* %
CCC(C)(C)Nc1cc(C(F)F)c(-c2sc(C(=O)NCC(C)(C)O)nc2C(=O)N2C3CCC2CC3)cn1 [Example 93, 4-((1s,4s)-7-Azabicyclo[2.2.1]heptane-7-carbonyl)-5-(4-(difluoromethyl)-6-(tert-pentylamino)pyridin-3-yl)-N-(2-hydroxy-2-methylpropyl)thiazole-2-carboxamide] |  |  | 1.1 | 121* % | 0.01 | 
C[C@@H](Nc1cc(C(F)(F)F)c(-c2sc(C(=O)NCC(C)(C)O)nc2C(=O)N2CCC[C@@H]2C)cn1)C1CCC1 (relative stereo) [Example 176, 5-(6-(((R*)-1-Cyclobutylethyl)amino)-4-(trifluoromethyl)pyridine-3-yl)-N-(2-hydroxy-2-methylpropyl)-4-((S)-2-methylpyrrolidine-1-carbonyl)thiazole-2-carboxamide] |  |  | 1.3 |  | 0.015 | RORγt (FL) Reporter Assay B or C, % inhibition (value marked ***) ([1]; Conditions B or C, marked ***: footnote not given): 115*** %
C[C@H](Nc1cc(C(F)F)c(-c2sc(C(=O)N[C@@H]3CCC[C@H]3O)nc2C(=O)N2C3CCC2CC3)cn1)C(F)(F)F [Example 224, 4-((1s,4s)-7-Azabicyclo[2.2.1]heptane-7-carbonyl)-5-(4-(difluoromethyl)-6-(((1S)-2,2,2-trifluoro-1-methyl-ethyl)amino)-3-pyridyl)-N-((1R,2R)-2-hydroxycyclopentyl)thiazole-2-carboxamide] |  |  | 2.7 | 112* % |  | IC50 [1, 4]: 0.026 µM
